Read-outs that look alike come from different tables or passages of the source. Non-standard residues stand in square brackets, D forms with d. Residues, ends and D or L forms follow the SMILES beside them. No end group written: not given here. Aib = CC(C)(N)C(=O)O
What was measured:
[1] = Chemical stability by RP-HPLC (% main peak); type: physicochemical; details: for 4° C. % Main Peak / 30° C. % Main Peak / 40° C. % Main Peak: 4 weeks
Description: (§1) The compound of SEQ ID NO: 2 is dissolved in H2O to a 10 mg/mL concentration (peptide content), filtered through a 0.22 μm filter (Millex, SLGV004SL), and then diluted to 1 mg/mL in Buffer P5 (10 mM Histidine, 150 mM NaCl in H20, pH 5.0) or Buffer P6 (10 mM Histidine, 150 mM NaCl in H20, pH 6.0). Each solution is transferred to three vials and autoclaved. Samples are then maintained at 4° C., 30° C. and 40° C. Samples are visually assessed at different time points for turbidity and phase separation. Stability of the compound is assessed by analytical reverse phase HPLC (RP-HPLC) on a Phenomenex Aeris Widepore, 3.6 μm, XB-C18 4.6×100 mm column (P/NO 00D-4482-E0) heated at 60° C. with a AB (A=0.05% TFA/H2O; B=0.04% TFA/acetonitrile) gradient of 5% B isocratic over 5 min, 5 to 25% B over 20 minutes, 25 to 30% B over 30 min, and 30 to 45% B over 10 min with a flow rate of 1.2 mL/min (wavelength of 220 ηm).
The compound of SEQ ID NO: 2 also maintains chemical stability at pH 5 (Buffer P5) and pH 6 (Buffer P6) when maintained at 4° C., 30° C. and 40° C. for 4 weeks.

[2] = type: physicochemical
Description: as §1

[3] = Physical stability test using Thioflavin T binding assay (fibrillation); type: physicochemical; details: 25° C.; for Thioflavin T fluorescence t = 0 h / Thioflavin T fluorescence t = 48 h / Thioflavin T fluorescence t = 96 h: 1 mg/mL, stirred 300 rpm
Description: Fibrillation is a common problem when glucagon is formulated in aqueous solution. To assess the level of fibrillation of the compound of the present invention, a Thioflavin T binding assay is performed.
All samples are mechanically stressed at 25° C. in a magnetic stir plate set at 300 rpm. […] Raw data is collected with Softmax Pro 5.4.1 (Molecular Devices) and imported to Excel.

[4] = test system: blood glucose levels; assay: Effects of compound on blood glucose levels in C57/Bl6 male mice; type: in vivo; details: for Blood glucose levels: mean ± SEM of 4 mice
Description: To determine the effects of the compound of SEQ ID NO: 2 on blood glucose levels, the compound is administered to C57/B 16 mice. Three month old male C57BL6 mice (Harlan Laboratories) are used Animals are individually housed in a temperature-controlled (24° C.) facility with a 12 hour light/dark cycle, and have free access to food and water. After 1 week acclimation to the facility, mice are randomized to treatment groups (n=4/group). Test compound is formulated in Buffer 2 (see Physical stability test using Thioflavin T binding assay). On the morning of test, food is removed at 08:00 AM. Two hours after food is removed, the test compound is given subcutaneously at 0, 0.3, 1, 3 or 10 μg/kg doses. Blood glucose is measured at time 0, 15, 30, 60 and 120 minutes after test compound administration with an ACCU-CHECK® (Roche Diagnostics) glucometer. […] Results are expressed as mean±standard error mean (SEM) of 4 mice per group.
Blood glucose levels at 10 μg/kg of compound of SEQ ID NO: 2 is taken as the maximum value.

[5] = molecular target: T1, human glucagon receptor (hGR) (human, UniProt P47871 26-477); assay: SPA competition against 125I-labelled glucagon on 293HEK hGR membranes, Cheng-Prusoff
T1 construct: whole, on cells; The cAMP assay used whole cells of the same line
Description: Plates are sealed, mixed end over end, and read with a MicroBeta® scintillation counter after 12 hours of settling time at room temperature.

[6] = molecular target: T1, human glucagon receptor (hGR); assay: cell-based or functional assay
[7] = molecular target: T2, human glucagon-like peptide 1 receptor (hGLP-1R) (human, UniProt P43220 24-463); assay: SPA competition against 125I-labelled GLP-1 amide on 293HEK hGLP-1R membranes, Cheng-Prusoff
T2 construct: whole, on cells; Assay used crude plasma membranes of the expressing 293HEK cells

[8] = molecular target: T3, mouse glucagon receptor (mGR) (mouse, UniProt Q61606 27-485); assay: SPA competition against 125I-labelled glucagon on 293HEK mGR membranes, Cheng-Prusoff
T3 construct: whole, on cells; Assay used crude plasma membranes of the expressing 293HEK cells

[9] = molecular target: T4, human glucose-dependent insulinotropic peptide receptor (GIP-R) (human, UniProt P48546 22-466); assay: SPA competition against radioiodinated GIP on CHO-S human GIP-R membranes, Cheng-Prusoff
T4 construct: whole, on cells; Assay used crude plasma membranes of the expressing CHO-S cells; also called human GIP-R; hGIP-R
T4 sequence (looked up): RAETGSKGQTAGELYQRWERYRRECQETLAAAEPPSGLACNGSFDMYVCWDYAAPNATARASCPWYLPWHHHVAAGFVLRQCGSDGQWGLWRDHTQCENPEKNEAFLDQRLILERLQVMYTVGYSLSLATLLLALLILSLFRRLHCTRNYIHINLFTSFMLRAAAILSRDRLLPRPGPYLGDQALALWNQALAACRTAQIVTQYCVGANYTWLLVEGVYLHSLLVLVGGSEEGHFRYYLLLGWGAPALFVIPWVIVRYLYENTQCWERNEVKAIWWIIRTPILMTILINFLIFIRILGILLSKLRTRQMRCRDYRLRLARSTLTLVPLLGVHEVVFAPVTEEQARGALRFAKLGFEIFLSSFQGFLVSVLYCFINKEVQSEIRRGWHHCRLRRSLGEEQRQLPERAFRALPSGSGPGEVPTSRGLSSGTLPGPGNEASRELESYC

[10] = Buffer 1 (20 mM Histidine, pH 6.0)
[11] = Buffer 2 (10 mM Histidine, 150 nM NaCl, pH 6.0)
[12] = Buffer 3 (10 mM Histidine, 300 mM sorbitol, pH 6.0)
[13] = Buffer 4 (10 mM Histidine, 0.02% Tween 80, pH 6.0)
[14] = Buffer 5 (10 mM Histidine, 300 mM sucrose, pH 6.0)

T1 sequence (P47871 26-477): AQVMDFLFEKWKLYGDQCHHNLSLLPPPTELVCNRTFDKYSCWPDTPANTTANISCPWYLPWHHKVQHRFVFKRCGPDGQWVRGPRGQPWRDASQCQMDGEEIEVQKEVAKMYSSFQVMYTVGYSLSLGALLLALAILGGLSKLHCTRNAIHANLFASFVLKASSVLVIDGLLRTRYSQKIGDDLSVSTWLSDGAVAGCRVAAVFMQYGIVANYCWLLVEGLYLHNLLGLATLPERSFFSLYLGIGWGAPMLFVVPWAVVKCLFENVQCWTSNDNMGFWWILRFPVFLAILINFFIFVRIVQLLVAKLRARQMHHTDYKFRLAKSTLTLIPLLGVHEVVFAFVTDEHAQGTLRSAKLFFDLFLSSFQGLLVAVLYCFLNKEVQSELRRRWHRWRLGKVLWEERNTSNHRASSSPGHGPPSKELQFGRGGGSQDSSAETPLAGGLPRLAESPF
T3 sequence (Q61606 27-485): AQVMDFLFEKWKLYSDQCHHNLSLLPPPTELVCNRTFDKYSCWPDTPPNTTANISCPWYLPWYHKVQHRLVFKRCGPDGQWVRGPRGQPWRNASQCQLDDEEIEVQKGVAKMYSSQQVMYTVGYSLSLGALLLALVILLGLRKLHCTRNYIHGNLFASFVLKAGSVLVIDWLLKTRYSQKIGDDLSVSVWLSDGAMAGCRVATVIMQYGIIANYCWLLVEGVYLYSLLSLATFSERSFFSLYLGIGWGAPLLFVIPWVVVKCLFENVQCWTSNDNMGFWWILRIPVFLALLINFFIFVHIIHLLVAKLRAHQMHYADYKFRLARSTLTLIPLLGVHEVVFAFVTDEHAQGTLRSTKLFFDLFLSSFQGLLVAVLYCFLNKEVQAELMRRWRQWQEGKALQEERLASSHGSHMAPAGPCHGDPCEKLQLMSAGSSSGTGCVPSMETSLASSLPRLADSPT

Molecule: CC(C)C[C@H](NC(=O)[C@H](Cc1c[nH]c2ccccc12)NC(=O)[C@H](CCC(=O)O)NC(=O)[C@@H](NC(=O)[C@H](Cc1ccccc1)NC(=O)[C@H](CCC(=O)O)NC(=O)[C@H](CCC(N)=O)NC(=O)[C@H](C)NC(=O)[C@H](CCCCN)NC(=O)[C@H](CCCCN)NC(=O)C(C)(C)NC(=O)[C@H](CC(=O)O)NC(=O)[C@H](CC(C)C)NC(=O)[C@H](Cc1ccc(O)cc1)NC(=O)[C@H](CCCCN)NC(=O)[C@H](CO)NC(=O)[C@H](Cc1ccc(O)cc1)NC(=O)[C@H](CC(=O)O)NC(=O)[C@H](CO)NC(=O)[C@@H](NC(=O)[C@H](Cc1ccccc1)NC(=O)[C@@H](NC(=O)CNC(=O)[C@H](CCC(N)=O)NC(=O)[C@H](CO)NC(=O)[C@@H](N)Cc1ccc(O)cc1)[C@@H](C)O)[C@@H](C)O)C(C)C)C(=O)N[C@@H](CC(C)C)C(=O)N[C@@H](CCCCN)C(=O)N[C@H](C(=O)NCC(=O)N1CCC[C@H]1C(=O)N[C@@H](CO)C(=O)N[C@@H](CO)C(=O)NCC(=O)N[C@@H](C)C(=O)N1CCC[C@H]1C(=O)N1CCC[C@H]1C(=O)N[C@@H](CCCCN)C(=O)N[C@@H](CO)C(=O)N[C@@H](CCCCN)C(N)=O)[C@@H](C)O [SEQ ID NO: 2] (H-YSQGTFTSDYSKYLD[Aib]KKAQEFVEWLLKTGPSSGAPPKSK-NH2; N-terminus assumed)
- % Main Peak Day 0 ([1]; Buffer P5 (pH 5)): 96.53%
- 4° C. % Main Peak ([1]; Buffer P5 (pH 5)): 96.93%
- 30° C. % Main Peak ([1]; Buffer P5 (pH 5)): 93.82%
- 40° C. % Main Peak ([1]; Buffer P5 (pH 5)): 91.59%
- main peak changes ([1]; Buffer P5, pH 5 at 4-wk 30° C. vs 4° C.): less than 4%
- main peak changes ([1]; Buffer P5, pH 5 at 4-wk 40° C. vs 4° C.): < 6%
- % Main Peak Day 0 ([1]; Buffer P6 (pH 6)): 97.00%
- 4° C. % Main Peak ([1]; Buffer P6 (pH 6)): 95.89%
- 30° C. % Main Peak ([1]; Buffer P6 (pH 6)): 95.17%
- 40° C. % Main Peak ([1]; Buffer P6 (pH 6)): 90.57%
- main peak changes ([1]; Buffer P6, pH 6 at 4-wk 30° C. vs 4° C.): < 1%
- main peak changes ([1]; Buffer P6, pH 6 at 4-wk 40° C. vs 4° C.): < 6%
- solubility [2]: maintains good solubility
- Physical appearance ([2]; 4° C., 30° C. and 40° C., pH 5 and pH 6, over 4 weeks): clear to colorless, with no opalescences and no particles
- 30° C. vs 4° C. Recovery 4 wk ([2]; Buffer P5 (pH 5.0)): 102%
- 40° C. vs 4° C. Recovery 4 wk ([2]; Buffer P5 (pH 5.0)): 99%
- 30° C. vs 4° C. Recovery 4 wk ([2]; Buffer P6 (pH 6.0)): 101%
- 40° C. vs 4° C. Recovery 4 wk ([2]; Buffer P6 (pH 6.0)): 103%
- fibrillation as measured by the Thioflavin T binding assay ([3]; pH 6, 96 hours, mechanical stress): did not demonstrate fibrillation
- Thioflavin T fluorescence t = 0 h [3, 10]: 84.5 fluorescence units
- Thioflavin T fluorescence t = 48 h [3, 10]: 89.5 fluorescence units
- Thioflavin T fluorescence t = 96 h [3, 10]: 98.1 fluorescence units
- Thioflavin T fluorescence t = 0 h [3, 11]: 188.4 fluorescence units
- Thioflavin T fluorescence t = 48 h [3, 11]: 211.6 fluorescence units
- Thioflavin T fluorescence t = 96 h [3, 11]: 231.4 fluorescence units
- Thioflavin T fluorescence t = 0 h [3, 12]: 83.6 fluorescence units
- Thioflavin T fluorescence t = 48 h [3, 12]: 90.9 fluorescence units
- Thioflavin T fluorescence t = 96 h [3, 12]: 101.7 fluorescence units
- Thioflavin T fluorescence t = 0 h [3, 13]: 70.1 fluorescence units
- Thioflavin T fluorescence t = 48 h [3, 13]: 76.9 fluorescence units
- Thioflavin T fluorescence t = 96 h [3, 13]: 83.9 fluorescence units
- Thioflavin T fluorescence t = 0 h [3, 14]: 86.3 fluorescence units
- Thioflavin T fluorescence t = 48 h [3, 14]: 87.5 fluorescence units
- Thioflavin T fluorescence t = 96 h [3, 14]: 98.9 fluorescence units
- Blood glucose levels ([4]; 0.3 μg/kg subcutaneously, 0 minutes): 140.2 ± 2.4 mg/dL
- Blood glucose levels ([4]; 0.3 μg/kg subcutaneously, 15 minutes): 185.6 ± 7.5 mg/dL
- Blood glucose levels ([4]; 0.3 μg/kg subcutaneously, 30 minutes): 193.3 ± 6.0 mg/dL
- Blood glucose levels ([4]; 0.3 μg/kg subcutaneously, 60 minutes): 167.4 ± 6.6 mg/dL
- Blood glucose levels ([4]; 0.3 μg/kg subcutaneously, 120 minutes): 147.0 ± 5.1 mg/dL
- Blood glucose levels ([4]; 1 μg/kg subcutaneously, 0 minutes): 140.0 ± 2.0 mg/dL
- Blood glucose levels ([4]; 1 μg/kg subcutaneously, 15 minutes): 200.6 ± 5.8 mg/dL
- Blood glucose levels ([4]; 1 μg/kg subcutaneously, 30 minutes): 204.8 ± 8.9 mg/dL
- Blood glucose levels ([4]; 1 μg/kg subcutaneously, 60 minutes): 161.9 ± 4.0 mg/dL
- Blood glucose levels ([4]; 1 μg/kg subcutaneously, 120 minutes): 145.6 ± 3.9 mg/dL
- Blood glucose levels ([4]; 3 μg/kg subcutaneously, 0 minutes): 141.5 ± 3.0 mg/dL
- Blood glucose levels ([4]; 3 μg/kg subcutaneously, 15 minutes): 245.5 ± 10.0 mg/dL
- Blood glucose levels ([4]; 3 μg/kg subcutaneously, 30 minutes): 265.6 ± 13.3 mg/dL
- Blood glucose levels ([4]; 3 μg/kg subcutaneously, 60 minutes): 188.1 ± 9.3 mg/dL
- Blood glucose levels ([4]; 3 μg/kg subcutaneously, 120 minutes): 143.9 ± 3.8 mg/dL
- Blood glucose levels ([4]; 10 μg/kg subcutaneously, 0 minutes): 147.7 ± 4.4 mg/dL
- Blood glucose levels ([4]; 10 μg/kg subcutaneously, 15 minutes): 252.3 ± 11.2 mg/dL
- Blood glucose levels ([4]; 10 μg/kg subcutaneously, 30 minutes): 271.8 ± 13.8 mg/dL
- Blood glucose levels ([4]; 10 μg/kg subcutaneously, 60 minutes): 202.1 ± 7.9 mg/dL
- Blood glucose levels ([4]; 10 μg/kg subcutaneously, 120 minutes): 146.3 ± 5.5 mg/dL
- ED50 ([4]; calculated on the 30 minute glucose measurements, 10 μg/kg taken as maximum, subcutaneous): 1.36 µg/kg

B1: compound of SEQ ID NO: 2 (peptide)
peptide: YSQGTFTSDYSKYLD[Aib]KKAQEFVEWLLKTGPSSGAPPKSK-NH2
modifications: also: acetate salt
notes: Synthetic peptide made on Rink amide resin; acetate salt
- Ki [5]: 0.286 nM
- EC50, hGR stimulated cAMP functional assay (HTRF, hGR-HEK293 cells) [6]: 0.0203 nM
- Ki [7]: 2540 nM
- Ki [8]: 1.82 nM
- Ki [9]: 532 nM
